Patent US20030012732A1, “Feeding assay for identifying nematicidal compounds” (priority 1999, published 2003)

Assays:
C. elegans [1] = test: Feeding assay: ingestion of fluorescent microsphere beads (pharyngeal pumping), read by fluorimetry / fluorescence microscopy; assay type: in vivo, C. elegans of the Bristol N2 strain
Procedure: 1. C. elegans of the Bristol N2 strain (Brenner, S. 1974. The genetics of Caenorhabditis elegans. Genetics 77: 71-94) were cultured at room temperature on HMS174 E. coli bacteria (Campbell, J. L., Richardson, C., and Studier, F. W. 1978. Genetic recombination and complementation between bacteriophage T7 and cloned fragments of T7 DNA. Proc. Natl. Acad. Sci. USA. 75: 2276-2280) spread on a 150 mm diameter petri dish containing enhanced NGM 3% (w/v) (Avery, L., and Horvitz, H. R. 1990. Effects of starvation and neuroactive drugs on feeding in Caenorhabditis elegans. J. Exp. Zool. 253: 263-270) agar until a good population of adult nematodes was present, but food reserves had not been exhausted. (Nematodes may be mass cultured in suspension if required).
2. The nematodes were collected by washing with 10 mL and then 5 mL of […] and filtering over a 20 μm nylon mesh (Nytal—Catalogue no. BCNY-HD002-20) to retain adult nematodes.
3. Adult nematodes were collected from the mesh using a pasteur pipette and allowed to settle in an eppendorf tube at 1 g for 10 minutes. This packed volume was used to calculate quantities of nematodes for experiments and assays, although nematodes were resuspended in 2-10 volumes of M9 buffer for transfer. Quantitative transfers of nematodes were performed using a Gilson Pipetman P200 or equivalent and a yellow tip with 5 mm cut off the sharp end.
4. 96-well mesh-bottomed plates were blocked prior to performing the assay in order to minimise non-specific adherence of fluorescent microsphere beads. To block, 200 μL of a 0.1% (w/v) suspension of dark blue-dyed, non-fluorescent microsphere beads with a mean diameter of 0.95 μm and a hydrophilic surface coating (Catalogue code DC03B, carboxylate-modified polystyrene/polyvinyl copolymer) (manufactured and supplied by Bangs Laboratories, Inc. 9025 Technology Drive. Fishers, Ind. 46038-2886, USA) were added to the plate and incubated overnight at room temperature with orbital shaking at 70 r.p.m. Prior to the assay, the bead suspension was removed under vacuum using a Millipore Multiscreen manifold. The plate was washed three times by pipetting 200 μL of M9 buffer into each well, allowing the plate to sit for 5 minutes and then sucking off the suspension.
5. The assay was either set up in the wells of a solid-bottomed 24-well plate using a final assay volume in the range of 0.5 to 1.0 mL or it was set up in the wells of a 96-well mesh bottomed plate (Millipore Multiscreen N20 plates, custom order no. SE3R090M6). In the latter case, the final assay volume was always 100 μL. The assay buffer in all cases was M9. The added volume of a stock of M9 and the added volume of double-distilled water were adjusted so as to achieve a final concentration of 1×M9 in the desired assay volume. A sufficient volume of a suspension of nematodes was added to the assay wells to give a final percentage in the range of 2.5% to 15% (v/v) depending on the experiment. A stock solution of the drug or test compound (e.g. serotonin) was added to the wells of the plate to give the desired final concentration. A sufficient volume of a suspension of fluorescent microsphere beads in double-distilled water was added to give a final concentration in the range of 0.025% to 0.1% (w/v) depending on the experiment.
6. The fluorescent beads were 1.30 μm uniformly dyed microsphere beads with a hydrophilic surface-coating. The fluorescence excitation maximum was 420 nm and the emission maximum was 485 nm (catalogue code FC04F, carboxylate-modified polystyrene/polyvinyl copolymer, manufactured and supplied by Bangs Laboratories, Inc. 9025 Technology Drive, Fishers, Ind. 46038-2886, USA).
7. The assay plate was placed on an orbital shaker at 70 r.p.m. at room temperature and incubated for up to 180 minutes (normally 60 minutes), under subdued illumination.
8. At the end of the incubation 20 μL of 100 mM sodium azide was added to the wells of the 96-well mesh plate. […]

C. elegans [2] = test: Videotaping nematodes under Nomarski interference microscopy (pharyngeal pumping rate); assay type: in vivo; conditions: at the doses of FIG. 3, separate experiments (not shown)

In the case of `NCCc1c[nH]c2ccc(O)cc12` [serotonin], the “effect of high concentration on signal (bead ingestion)” value (C. elegans [1]; 5 mM serotonin, 60 minutes, FIG. 3) is reported as “suboptimal”, the signal over control (C. elegans [1]; 10 μL packed volume of adult nematodes (1,600-1,800 nematodes), two hour incubation, gain setting of 30) is reported as 6246 arbitrary fluorescence intensity units and the “microsphere beads contained in strongly labelled nematodes” value (C. elegans [1]; estimated, high magnification examination) is reported as “at least several hundred microsphere beads”. For the same compound, the “effect on microsphere bead ingestion when present during the incubation” value (C. elegans [1]; in vivo) was “increased microsphere bead ingestion”, the “average number of microsphere beads ingested by nematodes more than a control nematode” value (C. elegans [1]; later experiments, optimised conditions) was ≤ 2,400 microsphere beads and the “signal strength over control relative to the earlier experiment” value (C. elegans [1]; later experiments, optimised conditions, same volume of nematodes) was “approximately 6 times greater”. The “treated nematodes that had ingested one or more microsphere beads” value (C. elegans [1]; other experiments under similar conditions to FIG. 1, high magnification examination) was “approximately 80%”, the “microsphere beads ingested on average per serotonin-treated nematode more than a control nematode” value (C. elegans [1]; same experiment, two hour incubation) was 417 microsphere beads and the “effect on pharyngeal pumping rate” value (C. elegans [2]) was “directly affects pharyngeal pumping rate”.
